Read-outs that look alike come from different tables or passages of the source.
Test system: Spontaneously Hypertensive Rats
Assay: Test 1: antihypertensive effects (systolic tail artery blood pressure) and heart rate in spontaneously hypertensive rats, oral
Format: in vivo, rat (male, SHR)
Conditions: for change in vivo at 1 mg/kg / change in vivo at 10 mg/kg: Rattus norvegicus; for change in vivo at 1 mg/kg / Change (%) in heart rate: SHR; for Change (%) in heart rate: maximum value; for change in vivo at 10 mg/kg: po
Method: The antihypertensive effects of the certain compounds of this invention were studied in the following manner.
Among male, spontaneously hypertensive rats (SHRs) of 20 weeks of age or older and 350-430 g heavy all of which had developed hypertension, those having systolic blood pressures of 180 mmHg or higher were used in groups, each of which was constituted of 3-4 of the rats. […] Besides, heart rates were also measured simultaneously. The compounds were each dissolved or suspended in a 0.5% methylcellulose solution and then administered orally.
*All administered orally at a dosage of 1 mg/Kg except for the compounds
**Each percent change in heart rate is indicated by the corresponding

[1] = oral 1 mg/Kg, 1 hour, read-out: Antihypertensive effects, change (%) in blood pressure, 1 hour later
[2] = oral 1 mg/Kg, 3 hours, read-out: Antihypertensive effects, change (%) in blood pressure, 3 hours later
[3] = oral 1 mg/Kg, 6 hours, read-out: Antihypertensive effects, change (%) in blood pressure, 6 hours later
[4] = oral 1 mg/Kg, 24 hours, read-out: Antihypertensive effects, change (%) in blood pressure, 24 hours later

| Compound | change in vivo at 1 mg/kg [1] [%] | change in vivo at 1 mg/kg [2] [%] | change in vivo at 1 mg/kg [3] [%] | change in vivo at 1 mg/kg [4] [%] | Change (%) in heart rate (oral 1 mg/Kg) | change in vivo at 10 mg/kg (1 h, read-out: Antihypertensive effects, change (%) in blood pressure, 1 hour later) [%] | change in vivo at 10 mg/kg (3 h, read-out: Antihypertensive effects, change (%) in blood pressure, 3 hours later) [%] | change in vivo at 10 mg/kg (6 h, read-out: Antihypertensive effects, change (%) in blood pressure, 6 hours later) [%] | change in vivo at 10 mg/kg (24 h, read-out: Antihypertensive effects, change (%) in blood pressure, 24 hours later) [%] | Change (%) in heart rate (oral 10 mg/Kg) |
| --- | --- | --- | --- | --- | --- | --- | --- | --- | --- | --- |
| CCn1cc(Cc2ccccc2)c2nc(N3CCN(c4nc(N)c5cc(OC)c(OC)cc5n4)CC3)ncc2c1=O [Example 15] | -2.9 | -7.7 | -12 | -7.7 | +3.7% |  |  |  |  |  |
| COc1cc2nc(N3CCN(c4ncc5c(=O)n(C6CC6)ccc5n4)CC3)nc(N)c2cc1OC [Example 11] | -0.5 | -16.6 | -17.1 | -6.8 | +5.7% |  |  |  |  |  |
| COCCn1ccc2nc(N3CCN(c4nc(N)c5cc(OC)c(OC)cc5n4)CC3)ncc2c1=O [Example 8] | -0.5 | -9.5 | -11.4 | -4 | +5.2% |  |  |  |  |  |
| COc1cc2nc(N3CCN(c4ncc5c(=O)n(Cc6ccccc6)ccc5n4)CC3)nc(N)c2cc1OC [Example 10] | 1.5 | -14.4 | -11.9 | -5 | +5.2% |  |  |  |  |  |
| CCCN1Cc2nc(N3CCN(c4nc(N)c5cc(OC)c(OC)cc5n4)CC3)ncc2C1=O [Example 26] | -8.8 | -15.2 | -21.6 | -4.9 | +9.8% |  |  |  |  |  |
| COc1cc2nc(N3CCN(c4ncc(C#N)c(O)n4)CC3)nc(N)c2cc1OC [Example 51] | 8.6 | 0 | -4.1 | -2.5 | +3.0% |  |  |  |  |  |
| CCCN(CCC)C(=O)c1cnc(N2CCN(c3nc(N)c4cc(OC)c(OC)cc4n3)CC2)nc1NCC [Example 80] | -13.9 | -26 | -33.2 | -10.1 | +12.3% |  |  |  |  |  |
| CCNC(=O)c1cnc(N2CCN(c3nc(N)c4cc(OC)c(OC)cc4n3)CC2)nc1CC [Example 38] | -26.6 | -24.1 | -27.6 | -7.9 | +7.9% |  |  |  |  |  |
| CCn1ccc2c(c1=O)CN=C(N1CCN(c3nc(N)c4cc(OC)c(OC)cc4n3)CC1)N2 [Example 35] | -0.5 | -8.7 | -16.3 | -15.9 | +9.1% |  |  |  |  |  |
| CCNC(=O)Cc1cnc(N2CCN(c3nc(N)c4cc(OC)c(OC)cc4n3)CC2)nc1NCC [Example 63] | 3.1 | -4.7 | -9 | -6.6 | +6.8% |  |  |  |  |  |
| CCN(CC)C(=O)c1cnc(N2CCN(c3nc(N)c4cc(OC)c(OC)cc4n3)CC2)nc1NC [Example 77] | -31 | -32.9 | -36.2 | -13.8 | +25.1% |  |  |  |  |  |
| CCNc1nc(N2CCN(c3nc(N)c4cc(OC)c(OC)cc4n3)CC2)ncc1C(=O)OC(C)C [Example 61] | -2.4 | -22 | -28.2 | -12 | +12.4% |  |  |  |  |  |
| COc1cc2nc(N3CCN(c4ncc([N+](=O)[O-])cc4[N+](=O)[O-])CC3)nc(N)c2cc1OC [Example 92] |  |  |  |  |  | 1.4 | -3.3 | -9.4 | -6.1 | +8.5% |
| COc1cc2nc(N3CCN(c4ncc5c(n4)CN(CCc4ccccc4)C5=O)CC3)nc(N)c2cc1OC [Example 89] | -2.4 | -13.3 | -13.8 | -2.9 | +5.8% |  |  |  |  |  |
| COc1cc2nc(N3CCN(c4ncc(C(=O)N5CCCC5)c(C)n4)CC3)nc(N)c2cc1OC [Example 49] | -4.5 | -10.6 | -13.1 | -7.5 | +6.3% |  |  |  |  |  |
| COc1cc2nc(N3CCN(c4ncc(C(=O)NCC(F)(F)F)c(C)n4)CC3)nc(N)c2cc1OC [Example 48] | -4.5 | -9 | -15 | -4 | +6.9% |  |  |  |  |  |
| CNc1nc(N2CCN(c3nc(N)c4cc(OC)c(OC)cc4n3)CC2)ncc1C(=O)N(C)C [Example 69] | -12.9 | -22.7 | -24.7 | -4.6 | +7.4% |  |  |  |  |  |
| CCOC(=O)c1cnc(N2CCN(c3nc(N)c4cc(OC)c(OC)cc4n3)CC2)nc1NC(C)C [Example 59] | -10.1 | -23.9 | -30.6 | -12.4 | +5.7% |  |  |  |  |  |
| CCn1ccc2nc(N3CCN(c4nc(N)c5cc(OC)c(OC)c(OC)c5n4)CC3)ncc2c1=O.Cl [Example 81, 4-Amino-6,7,8-trimethoxy-2-(4-(5,6-dihydro-6-ethyl-5-oxopyrido[4,3-d]pyrimidin-2-yl)piperazino)quinazoline hydrochloride] | -0.5 | -7.3 | -12.1 | -8.7 | +3.8% |  |  |  |  |  |
| CCNC(=O)c1cnc(N2CCN(c3nc(N)c4cc(OC)c(OC)cc4n3)CC2)nc1N [Example 64] | -1.4 | -9.6 | -13.9 | -1.9 | +9.9% |  |  |  |  |  |
| CCOC(=O)c1cnc(N2CCN(c3nc(N)c4cc(OC)c(OC)cc4n3)CC2)nc1NC [Example 55] | -6.5 | -21.9 | -29.9 | -7.5 | +7.0% |  |  |  |  |  |
| CCn1ccc2nc(N3CCCN(c4nc(N)c5cc(OC)c(OC)cc5n4)CC3)ncc2c1=O [Example 82, 4-Amino-6,7-dimethoxy-2-(4-(5,6-dihydro-6-ethyl-5-oxopyrido[4,3-d]pyrimidin-2-yl)homopiperazino)quinazoline] | 0.5 | -6.9 | -8.8 | -6.4 | +5.8% |  |  |  |  |  |
| COc1cc2nc(N3CCN(c4ncc(C(=O)Nc5ccccc5)c(C)n4)CC3)nc(N)c2cc1OC [Example 43] | 4.5 | 0.5 | -6.5 | -9.5 | +5.7% |  |  |  |  |  |
| CCOC(=O)c1cnc(N2CCN(c3nc(N)c4cc(OC)c(OC)cc4n3)CC2)nc1O [Example 50] | -1.5 |  | -14.6 | -6.3 | +2.9% |  |  |  |  |  |
| CCN(CC)C(=O)c1cnc(N2CCN(c3nc(N)c4cc(OC)c(OC)cc4n3)CC2)nc1SC [Example 53] | -27.9 | -31.3 | -36.1 | -12 | +25.7% |  |  |  |  |  |

Source: patent US4734418A, “Quinazoline compounds and antihypertensives” (priority 1984, dated 1988)
